Results reported in patent publication US20190345202A1, “ANDROGEN RECEPTOR ANTISENSE OLIGONUCLEOTIDES” (OliPass Corporation, priority 2016, published 2019).
[C(1O2)] = PNA monomer with modified cytosine C(1O2), structure; [A(5)] = PNA monomer with modified adenine A(5), structure; {Fethoc} = Fethoc group on PNA N-terminus; {NH2} = C-terminal amide

How the values were obtained:
[1] = tested on: C57BL/6 mice; test: Hair growth in C57BL/6 mice upon topical administration (brightness score, hair weight); assay type: in vivo, mouse
Method: (§1) [Hair Removal and Grouping] In Day 0, 7 week old female C57BL/6 mice were anesthetized with zoletil/rompun, and the hair in the back was cut and removed with a clipper and wax, respectively. Mice with flawless (i.e. spotless) hair removal were selected and randomly assigned into three groups (7 animals per group).
[Topical Administration] The topical solutions of “ASO 1” were prepared by diluting a mother stock solution of “ASO 1” to 0.2 fM or 1 fM in aqueous 30% (v/v) ethanol supplemented with 3% (v/v) glycerin. About 100 μL of 0 (negative control), 0.2, or 1 fM “ASO 1” was topically administered in the back of each animal using a cotton ball in Days 3, 7, 10, and 14.
[Digital Image Scoring for Hair Growth] For scoring the hair growth, the animals were anesthetized and photographed by group as shown in FIG. 11A using a digital camera at a fixed value of exposure time and illumination. The digital image for the area of the hair removal for each animal was selected and digitally scored for the average brightness over the selected area using “ImageJ” program. Lower brightness score is taken as faster hair growth. Brightness scores of individual animals were combined by group, and subjected to statistical analysis by student's t-test. FIG. 11B summarizes the relative brightness scores of the ASO treated groups against the control group. The relative brightness score tended to decrease with days in the treatment groups. […] Thus, “ASO 1” was concluded to promote hair growth upon topical administrations at 1 fM.
[Scoring by Hair Weight] In Day 21, the animals were anesthetized and the hair in the back was cut with a clipper. The hair samples from individual animals were combined by group, and weighed to evaluate the hair growth between Day 0 and Day 21. The average hair weight was 70.5 mg/animal for the control group, 90.8 mg/animal for the 0.2 fM treatment group, and 94.4 mg/animal for the 1 fM treatment group. Thus “ASO 1” was concluded to promote hair growth upon topical administrations at 0.2 fM as well as 1 fM.
as §1, with “(10” for “(7”
[Topical Administration] The topical solutions of “ASO 5” were prepared by diluting a mother stock solution of “ASO 5” to 1, 5, or 25 fM in aqueous 30% (v/v) ethanol supplemented with 3% (v/v) glycerin. About 100 μL of each ASO solution or vehicle (negative control) was topically administered to in the back of an animal using a cotton ball in Days 3, 7, 10, 14 and 21.
Following the shaving in Day 21, the animals received a single topical administration of either vehicle or “ASO 5” at 1 fM, 5 fM, or 25 fM. In Day 53, the hair in the back was collected by shaving with a clipper to determine the total amount of hair growth between Days 21 and 53. The average hair weights of the 1 fM, 5 fM, and 25 fM groups were 1,630%, 1,450%, and 771% of the non-treated group, respectively. Thus “ASO 5” was concluded to promote hair growth upon topical administrations at 1 to 25 fM.
as §1, with “(9” for “(7”
[Topical Administration] The topical solutions of “ASO 10” were prepared by diluting a mother stock solution of “ASO 10” to 1, 5, or 25 fM in aqueous 30% (v/v) ethanol supplemented with 3% (v/v) glycerin. About 100 μL of each ASO solution or vehicle (negative control) was topically administered to in the back of an animal using a cotton ball in Day 2.

[2] = tested on: 10-mer complementary DNA; test: Tm of duplex between PNA and 10-mer complementary DNA (UV/Vis); assay type: binding; settings: 4 μM PNA and 4 μM 10-mer DNA, aqueous buffer pH 7.16, 10 mM sodium phosphate, 100 mM NaCl
Method: The PNA derivatives in Table 1 were evaluated for their binding affinity for 10-mer DNAs complementarily targeting either the N-terminal or C-terminal. The binding affinity was assessed by Tm value for the duplex between PNA and 10-mer complementary DNA. The duplex between PNA derivatives in Table 1 and fully complementary DNAs show Tm values too high to be reliably determined in aqueous buffer solution, since the buffer solution tends to boil off during the Tm measurement.
Tm values were determined on an UV/Vis spectrometer as follows. A mixed solution of 4 μM PNA oligomer and 4 μM complementary 10-mer DNA in 4 mL aqueous buffer (pH 7.16, 10 mM sodium phosphate, 100 mM NaCl) in 15 mL polypropylene falcon tube was incubated at 90° C. for a minute and slowly cooled down to ambient temperature over several minutes. Then the solution was transferred into a 3 mL quartz UV cuvette equipped with an air-tight cap, and subjected to a Tm measurement at 260 nm on an Agilent 8453 UV/Visible spectrophotometer or a similar one as described in the prior art [PCT/KR2009/001256] or with minor modifications. The 10-mer complementary DNAs for Tm measurement were purchased from Bioneer (www.bioneer.com, Dajeon, Republic of Korea) and used without further purification.

[3] = tested on: human AR mRNA; test: qPCR (SYBR Green) of AR mRNA level in MCF7 cells; settings: 5 hours
[4] = tested on: full-length AR protein; test: Western blot of AR protein in MCF7 cells; assay type: cell-based, human; settings: 10 zM to 30 aM
Method: 4 culture dishes were used for 4 negative controls. 48 hours later, cells were washed 2 times with cold PBS, and then subjected to lysis with 200 μL 1× cell lysis buffer (Cat. No. 9803, Cell Signaling Tech) supplemented with 1× protease inhibitor (Cat. No. P8340, Sigma). The lysates were collected in 1.5 ml e-tube. 200 μL of each lysate was mixed with 100 μL 3× sample buffer, and boiled for 5 min at 100 ? . 20 μL of each lysate (12 lysates in total). 4 negative controls and 8 ASO treatment samples) was subjected to electrophoretic separation on a 8% SDS-PAGE gel, and transferred onto a 0.2 μm PVDF membrane. The membrane was probed with anti-AR antibody (Cat. No. 5153, Cell Signaling Tech) and anti-β-actin antibody (Cat. No. sc4778, Santa Cruz). FIG. 10A provides the AR Western blot data obtained therefrom. Multiple (negative) control samples were used to overcome technical artifacts of western blot procedures.

| Substance | average hair weight ([1]; 1 fM topical in Day 2, hair growth between Day 0 and Day 27) | average hair weight ([1]; 5 fM topical in Day 2, hair growth between Day 0 and Day 27) | average hair weight ([1]; 25 fM topical in Day 2, hair growth between Day 0 and Day 27) | brightness score vs non-treatment group ([1]; Day 27, 1 fM and 5 fM groups, topical in Day 2) | Tm Value, 10-mer DNA against C-Terminal [2] | Tm Value, 10-mer DNA against N-Terminal [2] | decrease of relative expression level of exons 4-6 ([3]; 1 zM to 1,000 zM) | average hair weight ([1]; 1 fM topical, hair growth between Day 0 and Day 21) | average hair weight ([1]; 1 fM, single topical administration after shaving in Day 21, hair growth between Days 21 and 53) | average hair weight ([1]; 5 fM topical, hair growth between Day 0 and Day 21) | average hair weight ([1]; 5 fM, single topical administration after shaving in Day 21, hair growth between Days 21 and 53) | average hair weight ([1]; 25 fM topical, hair growth between Day 0 and Day 21) | average hair weight ([1]; 25 fM, single topical administration after shaving in Day 21, hair growth between Days 21 and 53) | brightness score vs non-treated group ([1]; Day 17, 1 fM and 25 fM groups, topical in Days 3, 7, 10, 14 and 21) | exon message levels (exons 4-6) relative to negative control ([3]; 1 aM) | decrease of exon message levels (exons 4-6) ([3]; 100 zM) | AR band intensity vs neighboring lysates without ASO treatment [4] |
| --- | --- | --- | --- | --- | --- | --- | --- | --- | --- | --- | --- | --- | --- | --- | --- | --- | --- |
| Fethoc-C(1O2)TT-A(5)CC-A(5)GG(6)-CA(5)A-NH2 (antisense CTTACCAGGCAA; N-Fethoc, C-terminal amide, chemistry not fully specified) [ASO 10] | 115 % of the non-treated group | 114 % of the non-treated group | 119 % of the non-treated group | significantly lower | 78.4 °C | 84.4 °C | 60-80% |  |  |  |  |  |  |  |  |  |  |
| Fethoc-C(1O2)TT-A(5)CC-A(5)GG-C(1O2)AA(5)-G-NH2 (antisense CTTACCAGGCAAG; all peptide nucleic acid (PNA), [C(1O2)] at 1, 10, [A(5)] at 4, 7, 12, 5' {Fethoc}, 3' {NH2}; peptide nucleic acid, written N to C terminus) [ASO 5] |  |  |  |  | 81.3 °C | 86.1 °C |  | 293 % of the negative control group | 1,630 % of the non-treated group | 306 % of the negative control group | 1,450 % of the non-treated group | 278 % of the negative control group | 771 % of the non-treated group | significantly lower | rebounded to near the levels of the negative control | 50 to 60% | considerably weaker |
